US20080214542A1, “Arylpiperazine Derivatives and their Use as Selective Dopamine D3 Receptor Ligands” (BIOPROJET, priority 2004, published 2008)
Counter-ions that a name gives are not always drawn.

target: human dopamine D3 receptor (hD3) (Homo sapiens, UniProt P35462); experiment: Binding of [3H]spiperone to membranes of CHO cells transfected with the human dopamine D3 receptor; settings: binding of [3H]spiperone (0.5 to 2 nM), hD3-transfected CHO cell membranes, 60 minutes at ambient temperature; read-out: hD3 Ki
Sequence (P35462 whole entry): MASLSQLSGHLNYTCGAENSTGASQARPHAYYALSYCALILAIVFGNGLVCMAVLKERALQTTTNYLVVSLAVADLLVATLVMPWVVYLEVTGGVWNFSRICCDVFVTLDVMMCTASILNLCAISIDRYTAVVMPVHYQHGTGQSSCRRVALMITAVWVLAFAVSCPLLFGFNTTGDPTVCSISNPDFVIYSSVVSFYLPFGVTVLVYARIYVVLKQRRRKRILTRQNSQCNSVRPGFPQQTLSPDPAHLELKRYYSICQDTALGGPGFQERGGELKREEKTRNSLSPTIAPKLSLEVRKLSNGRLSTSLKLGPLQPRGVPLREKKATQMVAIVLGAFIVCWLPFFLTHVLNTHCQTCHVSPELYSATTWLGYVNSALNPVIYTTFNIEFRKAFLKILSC
Experimental: Biological Results: Determination of the Affinity of the Compounds for the Human Dopamine D3 Receptor
Binding of [^3H]spiperone:
CHO cells were transfected by the gene coding for the human dopamine D3 receptor (hD3). The binding of [^3H]spiperone (0.5 to 2 nM) takes place in the presence of 5 to 10 μg of membranous proteins in a medium containing 120 mM NaCl, 5 mM KCl, and 50 mM Tris HCL pH 7.4; an incubation of 60 minutes at ambient temperature is necessary. The non-specific binding is estimated in the presence of 5 μM of haloperidol. The non-transfected cells are devoid of any binding activity.

Ki [nM]	Compound
2.6	N#Cc1ccc2c(c1)CN(C(=O)CCCCCN1CCN(c3cccc(C(F)(F)F)c3)CC1)C2 [Example 3, 1-(5-cyanoisoindolin-2-yl)-6-[4-(3-trifluoromethylphenyl)piperazin-1-yl]-hexan-1-one hydrochloride]
1.21	O=C(CCCCCN1CCN(c2cccc(C(F)(F)F)c2)CC1)N1Cc2ccc(OCCCN3CCCCC3)cc2C1 [Example 24, 1-[5-(3-piperidinopropoxy)isoindolin-2-yl]-6-[4-(3-trifluoromethylphenyl)piperazin-1-yl]hexan-1-one]
0.85	COC(=O)c1ccc2c(c1)CN(C(=O)CCCCCN1CCN(c3cccc(C(F)(F)F)c3)CC1)C2 [Example 12, 1-(5-methoxycarbonylisoindolin-2-yl)-6-[4-(3-trifluoromethylphenyl)piperazin-1-yl]hexan-1-one hydrochloride]
0.84	O=C(CCCCCN1CCN(c2cccc3c2CCCC3)CC1)N1Cc2ccccc2C1 [Example 38, 1-isoindolin-2-yl-6-[4-(5,6,7,8-tetrahydro-naphthalen-1-yl)piperazin-1-yl]hexan-1-one]
19.7	O=C(CCCCCN1CCC(c2cccc(C(F)(F)F)c2)CC1)N1Cc2ccccc2C1 [Example 51, 1-isoindolin-2-yl-6-[4-(3-trifluoromethyl-phenyl)-piperidin-1-yl]hexan-1-one]
1.05	O=C(CCCCCN1CCN(c2cccc(C(F)(F)F)c2)CC1)N1Cc2ccc(F)cc2C1 [Example 7, 1-(5-fluoroisoindolin-2-yl)-6-[4-(3-trifluoromethylphenyl)piperazin-1-yl]hexan-1-one]
1.17	O=C(CCCCCN1CCN(c2cccc(C(F)(F)F)c2)CC1)N1Cc2cc3c(cc2C1)OCO3 [Example 10, 1-(6,7-dihydro-5H-[1,3]dioxolo[4,5-f]isoindol-6-yl)-6-[4-(3-trifluoromethylphenyl)piperazin-1-yl]hexan-1-one]
0.9	COc1ccc2c(c1)CN(C(=O)CCCCCN1CCN(c3cccc(C(F)(F)F)c3)CC1)C2 [Example 1, 1-(5-methoxyisoindolin-2-yl)-6-[4-(3-trifluoromethylphenyl)piperazin-1-yl]hexan-1-one]

Compound	Ki [nM]
O=C(CCCCCN1CC=C(c2cccc(C(F)(F)F)c2)CC1)N1Cc2ccccc2C1 [Example 50, 1-isoindolin-2-yl-6-[4-(3-trifluoromethylphenyl)-3,6-dihydro-2H-pyridin-1-yl]hexan-1-one]	0.93

same assay, conditions: comparative example, affinity for the dopamine D3 receptor; read-out: Ki

Ki [nM]	Compound
321	O=C(CCCCCN1CCN(c2cccc(F)c2)CC1)N1Cc2ccccc2C1 [reference compound]
